Test results from US20260217701A1, “SELECTIVE BET INHIBITORS AND USES THEREOF” (Tay Therapeutics Limited, priority 2022, published 2026).

Legend:
[1] = SLE (lupus) model: body weight; assay type: in vivo, MRL/MpJ-Faslpr mice; details: for Mean Body Weight: Cyclophosphamide 50 mg/kg IP once a week
Procedure: (§1) Female MRL/MpJ-Faslpr mice (The Jackson Laboratory) were used to assess the efficacy of Compound A in treating lupus. Starting when animals were 10 weeks of age, protein concentration in urine was measured using urine dipsticks.
(§2) At the start of the study, each group in the study had two animals that were 9 weeks old, and all others were 10 weeks old. Dosing of all animals with the test compounds began when the older animals were 11 weeks old. […] […] Dosing was at a consistent time each dosing day throughout the study.
(§3) Compound A may be formulated as illustrated in Experimental Method A (see Table 2E.). […] A stock solution of Compound A in DMSO (stock solution concentration of Compound A of 40 mg/mL) was prepared and aliquots for weekly preparations were frozen at −20° C. On each preparation day, a stock solution aliquot was thawed and diluted with other vehicle components to the desired concentration. Formulated Compound A and vehicle were at room temperature for dosing.
(§4) The study began when the older animals were 11 weeks old, and concluded when the older animals were 19 weeks old. Body weight was recorded once a week, with the exception of two weight measurements taken the first week of the study (when the older animals were 11 weeks old). Proteinuria was measured in the urine of animals with urine dipsticks once a week, starting when the older animals were 10 weeks old. […] Blood samples were taken retro-orbitally at the start of the study to establish a baseline (15 animals, 3 per group), and when the older animals were 16 weeks (all animals) and when animals were 19 weeks (all animals) at the conclusion of the study. Blood urea nitrogen (BUN) was measured in all animals at study termination in blood samples. After blood collection, animals were euthanized, perfused with PBS, and the left kidneys were collected and weighed and fixed in 10% buffered formalin. Left kidneys were then processed to a formalin-fixed, paraffin-embedded (FFPE) block, and histology was analyzed in Periodic Acid-Schiff-stained sections (1 section per slide), using the criteria described in Alperovich et al., Lupus, 16:18-24 (2007). Right kidneys were weighed and snap-frozen at −80° C. Spleens were also collected and weighed. SLE in animals treated with a BET inhibitor and vehicle.

lupus [2] = experiment: SLE (lupus) model: proteinuria scores; assay type: in vivo, MRL/MpJ-Faslpr mice; details: Cyclophosphamide 50 mg/kg IP once a week
Procedure: as §1, §2, §3, §4

lupus [3] = experiment: SLE (lupus) model: kidney histology lesion scores; assay type: in vivo, MRL/MpJ-Faslpr mice; details: Week 19
Procedure: as §1, §2, §3, §4

lupus [4] = experiment: SLE (lupus) model: kidney and spleen weight; assay type: in vivo, MRL/MpJ-Faslpr mice; details: Week 19
Procedure: as §1, §2, §3, §4

lupus [5] = experiment: SLE (lupus) model: blood urea nitrogen (BUN) in serum; assay type: in vivo, MRL/MpJ-Faslpr mice; details: Cyclophosphamide 50 mg/kg IP once a week; Week 19
Procedure: as §1
At the start of the study, each group in the study had two animals that were 9 weeks old, and all others were 10 weeks old. Dosing of all animals with the test compounds began when the older animals were 11 weeks old. Starting on Day 1, in Groups 1-4, vehicle or Compound A was administered per os (PO) […] (QD) as described above in Table 33. […] Dosing was at a consistent time each dosing day throughout the study.
as §3, §4
BUN provides important information about how well kidneys are working. A BUN test measures the amount of urea nitrogen in the blood and indicates how much urea has been processed by the kidneys and is indicative of renal competency. Urea is a waste product that is excreted in urine.

anti-dsDNA antibodies = experiment: SLE (lupus) model: anti-dsDNA antibodies in serum by ELISA; assay type: in vivo, MRL/MpJ-Faslpr mice; details: for Anti-dsDNA Antibodies in serum, mean: Cyclophosphamide 50 mg/kg IP once a week
Procedure: as §1, §2, §3, §4
Anti-dsDNA antibody test measures the amount of antibody to double-stranded deoxyribonucleic acid (anti-dsDNA) that may be present in the blood. Anti-dsDNA antibodies are highly specific markers of SLE as these antibodies are not thought to be present in other kinds of autoimmune disorder.

IL-17A = IL-17A (Homo sapiens, UniProt Q16552); details: from FDA pharmacology review / corporate presentation; read-out: reported IC50 for IL-17A; cited from earlier work
IL-17A, sequence (Q16552 24-155): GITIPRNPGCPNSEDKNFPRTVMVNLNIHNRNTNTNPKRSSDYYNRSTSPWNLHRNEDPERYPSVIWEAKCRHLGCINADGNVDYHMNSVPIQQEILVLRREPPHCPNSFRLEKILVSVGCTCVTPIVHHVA

BET BD2 = details: public sources, not a head-to-head trial, cited from earlier work
[6] = system: goblet cells in gastrointestinal villi; details: at 28 days; Faivre et al.; not head-to-head; cited from earlier work
[7] = Cyclophosphamide 50 mg/kg IP once a week

With `O=P1(N(CCCl)CCCl)NCCCO1` (stereo not drawn) [Cyclophosphamide, cyclophosphamide, reference compound] the Mean Body Weight ([1]; Week 11) was 35.0 g, the Mean Body Weight ([1]; Week 12) was 36.2 g and the Mean Body Weight ([1]; Week 13) was 36.1 g. The Mean Body Weight ([1]; Week 14) was 37.2 g, the Mean Body Weight ([1]; Week 15) was 37.5 g and the Mean Body Weight ([1]; Week 16) was 38.6 g. For the same compound, the Mean Body Weight ([1]; Week 17) was 38.6 g, the Mean Body Weight ([1]; Week 18) was 38.9 g and the Mean Body Weight ([1]; Week 19) was 39.1 g. The “Relative end body weight (% of Week 11) ± SEM” value ([1]; Cyclophosphamide group) was 111.8% ± 1.7%, the Mean proteinuria score (lupus [2]; Week 10) was 2.00 and the Mean proteinuria score (lupus [2]; Week 11) was 2.05±. For the same compound, the Mean proteinuria score (lupus [2]; Week 12) was 2.10, the Mean proteinuria score (lupus [2]; Week 13) was 2.35 and the Mean proteinuria score (lupus [2]; Week 14) was 2.35. It also gave a Mean proteinuria score (lupus [2]; Week 15) of 2.25, a Mean proteinuria score (lupus [2]; Week 16) of 1.85 and a Mean proteinuria score (lupus [2]; Week 17) of 2.05. The Mean proteinuria score (lupus [2]; Week 18) was 2.10, the Mean proteinuria score (lupus [2]; Week 19) was 2.25 and the “End proteinuria score ± SEM” value (lupus [2]; end of study (Week 19)) was 2.25 ± 0.13. The “Total Glomerular Lesion (mean score)” value (lupus [3]; [7]) was 0.3, the “Total Glomerular Lesion (table title: Mean Total Kidney Lesion Scores)” value (lupus [3]; [7]) was 0.6 and the “Total Tubular and Interstitial Lesion (mean score)” value (lupus [3]; [7]) was 0.3. The “Mean total glomerular lesion score” value (lupus [3]; cyclophosphamide group) was 0.3, the “Mean total kidney lesion score” value (lupus [3]; cyclophosphamide group) was “about 0.6” and the “Mean total tubular and interstitial lesion score” value (lupus [3]; cyclophosphamide group) was “about 0.3”. For the same compound, the “Mean Kidney Weight” value (lupus [4]; [7]) was 191 mg, the “Mean Spleen Weight” value (lupus [4]; [7]) was 116 mg and the “Kidney weights relative to controls” value (lupus [4]; Compound A (10 mg/kg) and cyclophosphamide groups) was “slightly decreased kidney weights”. For the same compound, the “Spleen weights relative to vehicle controls” value (lupus [4]; Compound A (all tested doses) and cyclophosphamide) was “decreased spleen weights”, the BUN serum concentration (lupus [5]) was 11.0 mg/dL and the “Anti-dsDNA Antibodies in serum, mean” value (anti-dsDNA antibodies; Week 16) was 28 units/mL. The “Anti-dsDNA Antibodies in serum, mean” value (anti-dsDNA antibodies; Week 19) was 23 units/mL and the “Anti-dsDNA antibodies in serum versus Vehicle group” value (anti-dsDNA antibodies; Week 16 and Week 19, Compound A (10 mg/mL) and Cyclophosphamide) was “effective in reducing levels to well below that seen with the Vehicle administered group”.

For DC-806 [reference compound], the IC50 (IL-17A) is given as 5.7 nM.

In the case of `CCS(=O)(=O)Nc1ccc(Oc2ccc(F)cc2F)c(-c2cn(C)c(=O)c3[nH]ccc23)c1` [ABBV-075], the BD2 (BET BD2; comparator BET inhibitors) is given as 13 nM, the “Selectivity (BD1/BD2)” value (BET BD2; nanoBRET assay, comparator) is given as 2.6x and the “Effect on goblet cells in gastrointestinal villi” value [6] is given as “depleted goblet cells”.
